Consider one molecule from patent US8623426B2, “Composition for preventing or treating diseases caused by influenza viruses” (Korea Institute of Oriental Medicine, priority 2009, dated 2014).

The test system of one data set is influenza virus. The class given is cell-based. Particulars: 1.23 mg/ml.

Where two headings read alike, the source gives them in different places.

In the case of `CCOC(=O)C1=C[C@@H](OC(CC)CC)[C@H](NC(C)=O)[C@@H](N)C1` [Tamiflu, oseltamivir], the results for the cytotoxicity result with MDCK cells and with MDCK cells (1.23 mg/ml) were “comparatively high cytotoxicity” and “showed high cytotoxicity”, respectively. Further, the entries for the “Cell viability (%)” value in the data set with MDCK cells (0.14 mg/ml), in the data set with MDCK cells (0.41 mg/ml) and with MDCK cells (1.23 mg/ml) were 64.02%, 54.94% and 20.83%, respectively. The antiviral activity entry in the data set on influenza virus is reported as “no antiviral activity”.
